# Test results taken from patent publication EP0641797A1, “Cephem derivatives and antimicrobial agents containing the same” (KATAYAMA SEIYAKUSYO CO. Ltd., priority 1993, dated 1995).
# Experiments:
# Test in all cases: MIC on standard strains, standard method of Japan Society of Chemotherapy
# Format in all cases: cell-based
# M. luteus ATCC 9341 = conditions: Micrococcus luteus, ATCC9341
# Experimental: (§1) Antimicrobial activity of the compounds of the present invention were measured using CTM (cefotiam) and FMOX (flomoxef) as control drugs in accordance with the standard method of Japan Society of Chemotherapy. Of the 25 standard strains used in this test, Staphylococcus aureus 167 and Staphylococcus aureus 195 belong to MRSA.
# (§2) In these tables, drugs tested are shown by the corresponding examples in which they were synthesized.
# C. freundii ATCC 8090 = conditions: Citrobacter freundii, ATCC8090, C. freundii ATCC 8090; read-out: MIC
# Experimental: as §1, §2
# E. cloacae ATCC 13407 = conditions: Enterobacter cloacae, ATCC13407, E. cloacae ATCC 13407; read-out: MIC
# Experimental: as §1, §2
# S. aureus 167 = conditions: Staphylococcus aureus; S. aureus 167 (MRSA)
# Experimental: as §1, §2
# E. coli CSH2(RK1) = conditions: Escherichia coli
# Experimental: as §1, §2
# P. cepacia = conditions: Burkholderia cepacia, read-out: MIC
# Experimental: as §1, §2
# E. coli CSH2(RE45) = conditions: Escherichia coli
# Experimental: as §1, §2
# S. aureus 209p JC-1 = conditions: Staphylococcus aureus, 209P, read-out: MIC
# Experimental: as §1, §2
# E. coli NHIJ JC-2 = conditions: Escherichia coli, NHIJJC2
# Experimental: as §1, §2
# K. pneuminiae IFO 3317 = system: K. pneuminiae IFO 3317
# Experimental: as §1, §2
# S. epidemidis IAM 1296 = system: S. epidemidis IAM 1296
# Experimental: as §1, §2
# S. aureus 195 = conditions: Staphylococcus aureus; S. aureus 195 (MRSA)
# Experimental: as §1, §2
# P. mirabilis IFO 3849 = conditions: Proteus mirabilis, IFO3849, P. mirabilis IFO 3849; read-out: MIC
# Experimental: as §1, §2
# S. marcescens IAM 1184 = conditions: Serratia marcescens, IAM1184, S. marcescens IAM 1184; read-out: MIC
# Experimental: as §1, §2
# S. marcescens No. 16-2 = conditions: Serratia marcescens, NO.162
# Experimental: as §1, §2
# M. morganii IFO 3848 = conditions: Morganella morganii, IFO3848
# Experimental: as §1, §2
# P. aeruginosa NCTC 10490 = conditions: Pseudomonas aeruginosa, NCTC10490, P. aeruginosa NCTC 10490; read-out: MIC
# Experimental: as §1, §2
# K. pneuminiae No. 42 = system: K. pneuminiae No. 42
# Experimental: as §1, §2
# S. aureus Smith = conditions: Staphylococcus aureus, read-out: MIC
# Experimental: as §1, §2
# A. calcoaceticos T59 = conditions: read-out: MIC
# Experimental: as §1, §2
# P. vulugaris OX-19 = system: P. vulugaris OX-19
# Experimental: as §1, §2
# E. cloacae Nek39 = conditions: Enterobacter cloacae, NEK39, E. cloacae Nek39; read-out: MIC
# Experimental: as §1, §2
# P. aeruginosa AKR17 = conditions: Pseudomonas aeruginosa
# Experimental: as §1, §2
# B. subtilis ATCC 6633 = conditions: Bacillus subtilis, ATCC6633, B. subtilis ATCC 6633; read-out: MIC
# Experimental: as §1, §2
# A. faecalis ATCC 3750 = conditions: Alcaligenes faecalis, ATCC3750, A. faecalis ATCC 3750; read-out: MIC
# Experimental: as §1, §2
SMILES,MIC (M. luteus ATCC 9341),MIC (C. freundii ATCC 8090),MIC (E. cloacae ATCC 13407),MIC (S. aureus 167),MIC (E. coli CSH2(RK1)),MIC (P. cepacia),MIC (E. coli CSH2(RE45)),MIC (S. aureus 209p JC-1),MIC (E. coli NHIJ JC-2),MIC (K. pneuminiae IFO 3317),MIC (S. epidemidis IAM 1296),MIC (S. aureus 195),MIC (P. mirabilis IFO 3849),MIC (S. marcescens IAM 1184),MIC (S. marcescens No. 16-2),MIC (M. morganii IFO 3848),MIC (P. aeruginosa NCTC 10490),MIC (K. pneuminiae No. 42),MIC (S. aureus Smith),MIC (A. calcoaceticos T59),other results
"Nc1nc(/C(=N/O)C(=O)N[C@@H]2C(=O)N3C(C(=O)[O-])=C(C[n+]4cccc(-c5ncno5)c4)CS[C@H]23)cs1 [Ex. 7, 7β-[2-(2-aminothiazol-4-yl)-2-syn-hydroxyiminoacetamido]-3-[3-(1,2,4-oxadiazol-5-yl)pyridinio]methyl-3-cephem-4-carboxylate]",0.2 µg/mL,0.78 µg/mL,6.25 µg/mL,12.5 µg/mL,1.56 µg/mL,> 100 µg/mL,1.56 µg/mL,0.39 µg/mL,0.78 µg/mL,0.78 µg/mL,0.2 µg/mL,6.25 µg/mL,0.78 µg/mL,0.78 µg/mL,> 100 µg/mL,0.39 µg/mL,6.25 µg/mL,1.56 µg/mL,0.78 µg/mL,25 µg/mL,MIC (P. vulugaris OX-19): 1.56 µg/mL; MIC (E. cloacae Nek39): 100 µg/mL; MIC (P. aeruginosa AKR17): > 100 µg/mL; MIC (B. subtilis ATCC 6633): 0.78 µg/mL; MIC (A. faecalis ATCC 3750): 3.13 µg/mL
"Nc1nc(/C(=N/O)C(=O)N[C@@H]2C(=O)N3C(C(=O)[O-])=C(C[n+]4ccc(-c5ncno5)cc4)CS[C@H]23)cs1 [Ex. 8, 7β-[2-(2-aminothiazol-4-yl)-2-syn-hydroxyiminoacetamido]-3-[4-(1,2,4-oxadiazol-5-yl)pyridinio]methyl-3-cephem-4-carboxylate]",0.05 µg/mL,0.2 µg/mL,3.13 µg/mL,12.5 µg/mL,1.56 µg/mL,> 100 µg/mL,0.39 µg/mL,0.39 µg/mL,0.39 µg/mL,0.2 µg/mL,0.1 µg/mL,3.13 µg/mL,0.2 µg/mL,0.39 µg/mL,100 µg/mL,0.05 µg/mL,1.56 µg/mL,0.78 µg/mL,0.39 µg/mL,12.5 µg/mL,MIC (P. vulugaris OX-19): 0.2 µg/mL; MIC (E. cloacae Nek39): 50 µg/mL; MIC (P. aeruginosa AKR17): > 100 µg/mL; MIC (B. subtilis ATCC 6633): 0.78 µg/mL; MIC (A. faecalis ATCC 3750): 0.78 µg/mL
"Nc1nc(/C(=N/O)C(=O)N[C@@H]2C(=O)N3C(C(=O)[O-])=C(C[n+]4cccc(-c5cscn5)c4)CS[C@H]23)cs1 [Ex. 9, 7β-[2-(2-aminothiazol-4-yl)-2-syn-hydroxyiminoacetamido]-3-[3-(thiazol-4-yl)pyridinio]methyl-3-cephem-4-carboxylate iodide]",0.05 µg/mL,0.2 µg/mL,1.56 µg/mL,6.25 µg/mL,0.39 µg/mL,> 100 µg/mL,0.39 µg/mL,0.1 µg/mL,0.2 µg/mL,0.2 µg/mL,0.05 µg/mL,1.56 µg/mL,0.39 µg/mL,0.39 µg/mL,50 µg/mL,0.1 µg/mL,3.13 µg/mL,0.39 µg/mL,0.2 µg/mL,12.5 µg/mL,MIC (P. vulugaris OX-19): 0.39 µg/mL; MIC (E. cloacae Nek39): 50 µg/mL; MIC (P. aeruginosa AKR17): > 100 µg/mL; MIC (B. subtilis ATCC 6633): 0.2 µg/mL; MIC (A. faecalis ATCC 3750): 3.13 µg/mL
"Nc1nc(/C(=N/O)C(=O)N[C@@H]2C(=O)N3C(C(=O)[O-])=C(C[n+]4ccc(-c5nsc(N)n5)cc4)CS[C@H]23)cs1 [Ex. 11, 7β-[2-(2-aminothiazol-4-yl)-2-syn-hydroxyiminoacetamido]-3-[4-(5-amino-1,2,4-thiadiazol-3-yl)pyridinio]methyl-3-cephem-4-carboxylate]",0.05 µg/mL,0.2 µg/mL,6.25 µg/mL,6.25 µg/mL,0.39 µg/mL,> 100 µg/mL,0.2 µg/mL,0.1 µg/mL,0.1 µg/mL,0.1 µg/mL,0.05 µg/mL,1.56 µg/mL,0.2 µg/mL,0.39 µg/mL,100 µg/mL,0.05 µg/mL,3.13 µg/mL,0.39 µg/mL,0.1 µg/mL,25 µg/mL,MIC (P. vulugaris OX-19): 0.1 µg/mL; MIC (E. cloacae Nek39): > 100 µg/mL; MIC (P. aeruginosa AKR17): > 100 µg/mL; MIC (B. subtilis ATCC 6633): 0.1 µg/mL; MIC (A. faecalis ATCC 3750): 1.56 µg/mL
"Nc1nc(/C(=N/O)C(=O)N[C@@H]2C(=O)N3C(C(=O)[O-])=C(C[n+]4cccc(-c5nsc(N)n5)c4)CS[C@H]23)cs1 [Ex. 12, 7β-[2-(2-aminothiazol-4-yl)-2-syn-hydroxyiminoacetamido]-3-[3-(5-amino-1,2,4-thiadiazol-3-yl)pyridinio]methyl-3-cephem-4-carboxylate]",0.025 µg/mL,0.39 µg/mL,3.13 µg/mL,6.25 µg/mL,0.78 µg/mL,> 100 µg/mL,0.39 µg/mL,0.2 µg/mL,0.39 µg/mL,0.2 µg/mL,0.05 µg/mL,1.56 µg/mL,0.39 µg/mL,0.78 µg/mL,100 µg/mL,0.1 µg/mL,6.25 µg/mL,0.78 µg/mL,0.39 µg/mL,12.5 µg/mL,MIC (P. vulugaris OX-19): 0.39 µg/mL; MIC (E. cloacae Nek39): 100 µg/mL; MIC (P. aeruginosa AKR17): > 100 µg/mL; MIC (B. subtilis ATCC 6633): 0.2 µg/mL; MIC (A. faecalis ATCC 3750): 1.56 µg/mL
"Nc1nc(-c2cc[n+](CC3=C(C(=O)[O-])N4C(=O)[C@@H](NC(=O)/C(=N\O)c5csc(N)n5)[C@H]4SC3)cc2)no1 [Ex. 13, 7β-[2-(2-aminothiazol-4-yl)-2-syn-hydroxyiminoacetamido]-3-[4-(5-amino-1,2,4-oxadiazol-3-yl)pyridinio]methyl-3-cephem-4-carboxylate]",0.025 µg/mL,0.2 µg/mL,3.13 µg/mL,6.25 µg/mL,0.39 µg/mL,> 100 µg/mL,0.39 µg/mL,0.2 µg/mL,0.2 µg/mL,0.2 µg/mL,0.1 µg/mL,3.13 µg/mL,0.39 µg/mL,0.39 µg/mL,100 µg/mL,0.1 µg/mL,1.56 µg/mL,0.78 µg/mL,0.39 µg/mL,12.5 µg/mL,MIC (P. vulugaris OX-19): 0.2 µg/mL; MIC (E. cloacae Nek39): > 100 µg/mL; MIC (P. aeruginosa AKR17): > 100 µg/mL; MIC (B. subtilis ATCC 6633): 0.2 µg/mL; MIC (A. faecalis ATCC 3750): 1.56 µg/mL
